Key:
[1] = target: T1, mu opioid receptor (MOR) (Homo sapiens, UniProt P35372); experiment: MOR GTPγS agonist assay (membranes, SPA beads); format: biochemical; settings: membranes of CHO-K1 cells over-expressing MOR
T1 construct: host or cells: CHO-K1
Source text: Membranes obtained from the stable cell lines over-expressing MOR were subjected to GTPγS assay using SPA beads (Perkin Elmer, Cat #RPNQ0001).

[2] = system: Male Sprague-Dawley rats; experiment: Hot plate assay; format: in vivo; settings: rat, SC
Experimental: Male Sprague-Dawley rats weighing 275-300 grams were used in the study, n=8-10 per group. Animals are injected SC with 0.9% normal saline solution. At 15, 45, and 80 min after the injection, animals were placed onto a hotplate set to 52 degrees centigrade, and baseline latency is recorded (baseline latency=average time to 2nd withdrawal response consisting of either a lick of a rear paw, shaking a rear paw, backwards walking or jumping). A day later animals were injected SC with test compounds either in vehicle solution, or with a mix of compounds in solution. Next the test latency was recorded (test latency=time to withdrawal on the hotplate measured at 15, 45, 80, 120, 180 and 240 min using the procedure described). Times were then converted to % maximum possible effect (% MPE)=(test_latecy−baseline_latency)/(30 sec−baseline_latency); where 30 sec is the cutoff where the animal is removed if no response ifs observed as it is the time point at which injury is expected to occur.

T1 sequence (P35372 whole entry): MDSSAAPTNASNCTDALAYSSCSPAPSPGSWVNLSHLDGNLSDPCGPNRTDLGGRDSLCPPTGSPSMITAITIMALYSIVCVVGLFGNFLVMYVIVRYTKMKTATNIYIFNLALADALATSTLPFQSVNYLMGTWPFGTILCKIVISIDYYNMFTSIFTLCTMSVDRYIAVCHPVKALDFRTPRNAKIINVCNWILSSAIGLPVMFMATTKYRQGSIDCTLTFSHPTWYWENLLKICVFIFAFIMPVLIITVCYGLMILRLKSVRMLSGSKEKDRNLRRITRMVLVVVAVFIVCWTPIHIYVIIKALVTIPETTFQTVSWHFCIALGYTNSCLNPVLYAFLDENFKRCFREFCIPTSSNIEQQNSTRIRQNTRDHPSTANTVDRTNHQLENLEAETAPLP

CNC(=O)c1cc(C)c(C[C@@H](CNC(=O)c2ccccc2OC)N(C)C)c(C)c1 [Compound C-68, (S)-4-(2-(dimethylamino)-3-(2-methoxybenzamido)propyl)-N,3,5-trimethylbenzamide]
EC50 [1]: < 100 nM

Cc1cc(O)ccc1C[C@@H](CNC(=O)[C@@H]1C[C@@]1(C)c1ccccc1)N(C)C [Compound B-56, (1R,2R)—N—((S)-2-(dimethylamino)-3-(4-hydroxy-2-methylphenyl)propyl)-2-methyl-2-phenylcyclopropane-1-carboxamide]
analgesic activity in the hotplate test (time to withdrawal response, % MPE) ([2]; hotplate 52 degrees centigrade, FIG. 1): analgesic

CN(C)[C@H](CNC(=O)[C@@H]1C[C@]1(C)c1ccccc1)Cc1ccc(O)cc1Cl [Compound B-15, (1R,2S)—N—((S)-3-(2-chloro-4-hydroxyphenyl)-2-(dimethylamino)propyl)-2-methyl-2-phenylcyclopropane-1-carboxamide]
effect on the analgesic activity of agonist Compound B-56 in the hotplate test ([2]; co-dosed with Compound B-56, FIG. 1): blocks in vivo the analgesic activity of the agonist Compound B-56 | effect on its own in the hotplate test ([2]; dosed alone, FIG. 1): no effect on its own

CNC(=O)c1ccc(C[C@@H](CNC(=O)c2ccc(Cl)cc2Cl)N(C)C)cc1F [Compound C-37, (S)-2,4-dichloro-N-(2-(dimethylamino)-3-(3-fluoro-4-(methylcarbamoyl)phenyl)propyl) benzamide]
EC50 [1]: < 100 nM
